Reference: patent publication US8580794B2 (AbbVie Inc., priority 2009, dated 2013)

The molecules below were run against GST-Bc1-2 (Homo sapiens, UniProt P10415) (assay: Time Resolved-Fluorescence Resonance Energy Transfer (TR-FRET) Bcl-2 binding assay with F-Bak peptide probe). Conditions: GST-Bcl-2 1 nM, F-Bak probe 100 nM, Tb-anti-GST 1 nM; '<' = below limit of detection; read-out: TR-FRET Bcl-2 Binding Ki.
Chain of GST-Bc1-2 (P10415 whole entry): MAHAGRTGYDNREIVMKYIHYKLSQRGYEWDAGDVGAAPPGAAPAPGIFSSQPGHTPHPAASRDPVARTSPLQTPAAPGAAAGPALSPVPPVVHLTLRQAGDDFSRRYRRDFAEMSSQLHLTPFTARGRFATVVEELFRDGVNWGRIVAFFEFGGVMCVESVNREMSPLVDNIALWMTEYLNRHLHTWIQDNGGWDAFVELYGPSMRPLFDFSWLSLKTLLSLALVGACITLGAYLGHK

`CC1(C)CCC(CN2CCN(c3ccc(C(=O)NS(=O)(=O)c4ccc(NCC5(N)CCOCC5)c([N+](=O)[O-])c4)c(Oc4cnc5[nH]ccc5c4)c3)CC2)=C(c2ccc(Cl)cc2)C1` [Example 108, N-[(4-{[(4-aminotetrahydro-2H-pyran-4-yl)methyl]amino}-3-nitrophenyl)sulfonyl]-4-(4-{[2-(4-chlorophenyl)-4,4-dimethylcyclohex-1-en-1-yl]methyl}piperazin-1-yl)-2-(1H-pyrrolo[2,3-b]pyridin-5-yloxy)benzamide] and `CC1(C)CCC(CN2CCN(c3ccc(C(=O)NS(=O)(=O)c4ccc(NCC5CCOC5)c([N+](=O)[O-])c4)c(Oc4cnc5[nH]ccc5c4)c3)CC2)=C(c2ccc(Cl)cc2)C1` (stereo not drawn) [Example 114, 4-(4-{[2-(4-chlorophenyl)-4,4-dimethylcyclohex-1-en-1-yl]methyl}piperazin-1-yl)-N-({3-nitro-4-[(tetrahydrofuran-3-ylmethyl)amino]phenyl}sulfonyl)-2-(1H-pyrrolo[2,3-b]pyridin-5-yloxy)benzamide] cannot be ordered by Ki: < 0.01 nM for the first, < 0.01 nM for the second.

First: CC1(C)CCC(CN2CCN(c3ccc(C(=O)NS(=O)(=O)c4cnc(N[C@H]5CC[C@H](N6CCOCC6)CC5)c(C#N)c4)c(Oc4cnc5[nH]ccc5c4)c3)CC2)=C(c2ccc(Cl)cc2)C1 [Example 109, Trans-4-(4-{[2-(4-chlorophenyl)-4,4-dimethylcyclohex-1-en-1-yl]methyl}piperazin-1-yl)-N-({5-cyano-6-[(4-morpholin-4-ylcyclohexyl)amino]pyridin-3-yl}sulfonyl)-2-(1H-pyrrolo[2,3-b]pyridin-5-yloxy)benzamide]
Second: CC1(C)CCC(CN2CCN(c3ccc(C(=O)NS(=O)(=O)c4cnc(O[C@H]5CC[C@H](N6CCOCC6)CC5)c(Br)c4)c(Oc4cnc5[nH]ccc5c4)c3)CC2)=C(c2ccc(Cl)cc2)C1 [Example 124, Trans-N-({5-bromo-6-[(4-morpholin-4-ylcyclohexyl)oxy]pyridin-3-yl}sulfonyl)-4-(4-{[2-(4-chlorophenyl)-4,4-dimethylcyclohex-1-en-1-yl]methyl}piperazin-1-yl)-2-(1H-pyrrolo[2,3-b]pyridin-5-yloxy)benzamide]
The Ki of the first is higher: 0.127 nM for the first, < 0.01 nM for the second. The second binds more tightly here.

First: CC1(C)CCC(CN2CCN(c3ccc(C(=O)NS(=O)(=O)c4ccc(NCC5CCOCC5)c(C#N)c4)c(Oc4cnc5[nH]ccc5c4)c3)CC2)=C(c2ccc(Cl)cc2)C1 [Example 110, 4-(4-{[2-(4-chlorophenyl)-4,4-dimethylcyclohex-1-en-1-yl]methyl}piperazin-1-yl)-N-({3-cyano-4-[(tetrahydro-2H-pyran-4-ylmethyl)amino]phenyl}sulfonyl)-2-(1H-pyrrolo[2,3-b]pyridin-5-yloxy)benzamide]
Second: CC1(C)CCC(CN2CCN(c3ccc(C(=O)NS(=O)(=O)c4ccc(NC[C@H]5CCN(C6CCOCC6)C5)c([N+](=O)[O-])c4)c(Oc4cnc5[nH]ccc5c4)c3)CC2)=C(c2ccc(Cl)cc2)C1 [Example 118, 4-(4-{[2-(4-chlorophenyl)-4,4-dimethylcyclohex-1-en-1-yl]methyl}piperazin-1-yl)-N-{[3-nitro-4-({[(3R)-1-tetrahydro-2H-pyran-4-ylpyrrolidin-3-yl]methyl}amino)phenyl]sulfonyl}-2-(1H-pyrrolo[2,3-b]pyridin-5-yloxy)benzamide]
The Ki of the first is higher: 0.557 nM for the first, < 0.01 nM for the second.

`CC1(C)CCC(CN2CCN(c3ccc(C(=O)NS(=O)(=O)c4ccc(N[C@H]5CC[C@@H](N6CCOCC6)C5)c([N+](=O)[O-])c4)c(Oc4cnc5[nH]ccc5c4)c3)CC2)=C(c2ccc(Cl)cc2)C1` [Example 111, 4-(4-{[2-(4-chlorophenyl)-4,4-dimethylcyclohex-1-en-1-yl]methyl}piperazin-1-yl)-N-[(4-{[(1S,3R)-3-morpholin-4-ylcyclopentyl]amino}-3-nitrophenyl)sulfonyl]-2-(1H-pyrrolo[2,3-b]pyridin-5-yloxy)benzamide] and `CC1(C)CCC(CN2CCN(c3ccc(C(=O)NS(=O)(=O)c4ccc(N[C@@H]5CC[C@H](N6CCOCC6)C5)c([N+](=O)[O-])c4)c(Oc4cnc5[nH]ccc5c4)c3)CC2)=C(c2ccc(Cl)cc2)C1` [Example 112, 4-(4-{[2-(4-chlorophenyl)-4,4-dimethylcyclohex-1-en-1-yl]methyl}piperazin-1-yl)-N-[(4-{[(1R,3S)-3-morpholin-4-ylcyclopentyl]amino}-3-nitrophenyl)sulfonyl]-2-(1H-pyrrolo[2,3-b]pyridin-5-yloxy)benzamide] cannot be ordered by Ki: < 0.01 nM for the first, < 0.01 nM for the second.

`CC1(C)CCC(CN2CCN(c3ccc(C(=O)NS(=O)(=O)c4ccc(NCC5CNCCO5)c([N+](=O)[O-])c4)c(Oc4cnc5[nH]ccc5c4)c3)CC2)=C(c2ccc(Cl)cc2)C1` (stereo not drawn) [Example 113, 4-(4-{[2-(4-chlorophenyl)-4,4-dimethylcyclohex-1-en-1-yl]methyl}piperazin-1-yl)-N-({4-[(morpholin-2-ylmethyl)amino]-3-nitrophenyl}sulfonyl)-2-(1H-pyrrolo[2,3-b]pyridin-5-yloxy)benzamide] and `CC1(C)CCC(CN2CCN(c3ccc(C(=O)NS(=O)(=O)c4ccc(NC5CN(C6CCOC6)C5)c([N+](=O)[O-])c4)c(Oc4cnc5[nH]ccc5c4)c3)CC2)=C(c2ccc(Cl)cc2)C1` (stereo not drawn) [Example 117, 4-(4-{[2-(4-chlorophenyl)-4,4-dimethylcyclohex-1-en-1-yl]methyl}piperazin-1-yl)-N-({3-nitro-4-[(1-tetrahydrofuran-3-ylazetidin-3-yl)amino]phenyl}sulfonyl)-2-(1H-pyrrolo[2,3-b]pyridin-5-yloxy)benzamide] cannot be ordered by Ki: < 0.01 nM for the first, < 0.01 nM for the second.

`CC1(C)CCC(CN2CCN(c3ccc(C(=O)NS(=O)(=O)c4ccc(NC5CN(C6CCOCC6)C5)c([N+](=O)[O-])c4)c(Oc4cnc5[nH]ccc5c4)c3)CC2)=C(c2ccc(Cl)cc2)C1` [Example 116, 4-(4-{[2-(4-chlorophenyl)-4,4-dimethylcyclohex-1-en-1-yl]methyl}piperazin-1-yl)-N-({3-nitro-4-[(1-tetrahydro-2H-pyran-4-ylazetidin-3-yl)amino]phenyl}sulfonyl)-2-(1H-pyrrolo[2,3-b]pyridin-5-yloxy)benzamide] and `CC1(C)CCC(CN2CCN(c3ccc(C(=O)NS(=O)(=O)c4ccc(N[C@H]5CC[C@H](NC6CCOCC6)CC5)c([N+](=O)[O-])c4)c(Oc4cnc5[nH]ccc5c4)c3)CC2)=C(c2ccc(Cl)cc2)C1` [Example 123, Trans-4-(4-{[2-(4-chlorophenyl)-4,4-dimethylcyclohex-1-en-1-yl]methyl}piperazin-1-yl)-N-[(3-nitro-4-{[4-(tetrahydro-2H-pyran-4-ylamino)cyclohexyl]amino}phenyl)sulfonyl]-2-(1H-pyrrolo[2,3-b]pyridin-5-yloxy)benzamide] cannot be ordered by Ki: < 0.01 nM for the first, < 0.01 nM for the second.

`CC1(C)CCC(c2ccc(Cl)cc2)=C(CN2CCN(c3ccc(C(=O)NS(=O)(=O)c4ccc(OCC5(F)CCOCC5)c([N+](=O)[O-])c4)c(Oc4cnc5[nH]ccc5c4)c3)CC2)C1` [Example 119, 4-(4-{[2-(4-chlorophenyl)-5,5-dimethylcyclohex-1-en-1-yl]methyl}piperazin-1-yl)-N-({4-[(4-fluorotetrahydro-2H-pyran-4-yl)methoxy]-3-nitrophenyl}sulfonyl)-2-(1H-pyrrolo[2,3-b]pyridin-5-yloxy)benzamide] and `CC1(C)CCC(CN2CCN(c3ccc(C(=O)NS(=O)(=O)c4ccc(OCC5(F)CCNCC5)c([N+](=O)[O-])c4)c(Oc4cnc5[nH]ccc5c4)c3)CC2)=C(c2ccc(Cl)cc2)C1` [Example 127, 4-(4-{[2-(4-chlorophenyl)-4,4-dimethylcyclohex-1-en-1-yl]methyl}piperazin-1-yl)-N-({4-[(4-fluoropiperidin-4-yl)methoxy]-3-nitrophenyl}sulfonyl)-2-(1H-pyrrolo[2,3-b]pyridin-5-yloxy)benzamide] cannot be ordered by Ki: < 0.01 nM for the first, < 0.01 nM for the second.

`CO[C@H]1CC[C@@H](COc2ccc(S(=O)(=O)NC(=O)c3ccc(N4CCN(CC5=C(c6ccc(Cl)cc6)CC(C)(C)CC5)CC4)cc3Oc3cnc4[nH]ccc4c3)cc2[N+](=O)[O-])CC1` [Example 121, 2-(1H-pyrrolo[2,3-b]pyridin-5-yloxy)-4-(4-((2-(4-chlorophenyl)-4,4-dimethylcyclohex-1-enyl)methyl)piperazin-1-yl)-N-(4-((cis-4-methoxycyclohexyl)methoxy)-3-nitrophenylsulfonyl)benzamide] and `CO[C@H]1CC[C@H](COc2ccc(S(=O)(=O)NC(=O)c3ccc(N4CCN(CC5=C(c6ccc(Cl)cc6)CC(C)(C)CC5)CC4)cc3Oc3cnc4[nH]ccc4c3)cc2[N+](=O)[O-])CC1` [Example 125, Trans-4-(4-{[2-(4-chlorophenyl)-4,4-dimethylcyclohex-1-en-1-yl]methyl}piperazin-1-yl)-N-({4-[(4-methoxycyclohexyl)methoxy]-3-nitrophenyl}sulfonyl)-2-(1H-pyrrolo[2,3-b]pyridin-5-yloxy)benzamide] cannot be ordered by Ki: < 0.01 nM for the first, < 0.01 nM for the second.

`CC1(C)CCC(CN2CCN(c3ccc(C(=O)NS(=O)(=O)c4ccc(N[C@H]5CC[C@@H](NC6CC6)CC5)c([N+](=O)[O-])c4)c(Oc4cnc5[nH]ccc5c4)c3)CC2)=C(c2ccc(Cl)cc2)C1` [Example 122, Cis-4-(4-{[2-(4-chlorophenyl)-4,4-dimethylcyclohex-1-en-1-yl]methyl}piperazin-1-yl)-N-[(4-{[4-(cyclopropylamino)cyclohexyl]amino}-3-nitrophenyl)sulfonyl]-2-(1H-pyrrolo[2,3-b]pyridin-5-yloxy)benzamide] and `CC1(C)CCC(CN2CCN(c3ccc(C(=O)NS(=O)(=O)c4ccc(OCC5(F)CCN(C(=O)OC(C)(C)C)CC5)c([N+](=O)[O-])c4)c(Oc4cnc5[nH]ccc5c4)c3)CC2)=C(c2ccc(Cl)cc2)C1` [Example 126, tert-butyl 4-{[4-({[4-(4-{[2-(4-chlorophenyl)-4,4-dimethylcyclohex-1-en-1-yl]methyl}piperazin-1-yl)-2-(1H-pyrrolo[2,3-b]pyridin-5-yloxy)benzoyl]amino}sulfonyl)-2-nitrophenoxy]methyl}-4-fluoropiperidine-1-carboxylate] cannot be ordered by Ki: < 0.01 nM for the first, < 0.01 nM for the second.
